# According to paper PMC6196722 (Xenobiotica; the fate of foreign compounds in biological …, 2017):
# Assays:
# [1] = biological target: SULT1B1-WT (6xHis tagged) (Homo sapiens, UniProt O43704); test: intrinsic fluorescence titration; format: binding
# [2] = biological target: SULT1B1-WT (6xHis tagged) (Homo sapiens, UniProt O43704, L145V); test: intrinsic fluorescence titration; format: binding
# Chain of SULT1B1-WT (6xHis tagged) (Homo sapiens, UniProt O43704, L145V) (O43704 whole entry L145V): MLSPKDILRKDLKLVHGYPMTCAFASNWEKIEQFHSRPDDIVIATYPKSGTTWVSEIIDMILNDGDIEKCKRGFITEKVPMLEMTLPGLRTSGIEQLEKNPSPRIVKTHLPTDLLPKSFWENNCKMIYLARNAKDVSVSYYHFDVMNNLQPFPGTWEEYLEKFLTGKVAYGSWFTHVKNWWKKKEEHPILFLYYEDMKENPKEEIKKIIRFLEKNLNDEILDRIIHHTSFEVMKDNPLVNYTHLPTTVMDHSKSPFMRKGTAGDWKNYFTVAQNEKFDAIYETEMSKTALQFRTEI
# Chain of SULT1B1-WT (6xHis tagged) (Homo sapiens, UniProt O43704) (O43704 whole entry): as the sequence (O43704 whole entry L145V) above, with V145L counted along it
Kd [1],Kd [2],Compound
872 nM,980 nM,Nc1ncnc2c1ncn2[C@@H]1O[C@H](COP(=O)(O)OS(=O)(=O)O)[C@@H](OP(=O)(O)O)[C@H]1O [PAPS]
,405 nM,Nc1ncnc2c1ncn2[C@@H]1O[C@H](COP(=O)(O)O)[C@@H](OP(=O)(O)O)[C@H]1O [PAP]
